Experimental data taken from patent publication US20250170126A1 (MITSUBISHI TANABE PHARMA CORPORATION, priority 2022, published 2025).
Structures can show the parent of a compound that is named as a salt.

Target: Human B0AT1 (Homo sapiens (Human), UniProt Q695T7)
Test: hB0AT1 inhibitory test (phenylalanine uptake)
Assay type: cell-based
Settings: Human B0AT1 stable expression CHO cells; [3H]-L-phenylalanine uptake, phenylalanine 0.25 mM
Protocol: A test compound dissolved in dimethyl sulfoxide (DMSO) was added to a 96 well plate for solid phase radioactivity measurement containing a scintillator at the bottom of the well (final concentration of DMSO 0.5%). DMSO alone as a control and DMSO containing N-(4-bromophenyl)-3,5-dichloro-2-hydroxybenzamide (final concentration […]) for the is measurement of B0AT1 non-specific uptake were similarly added at 0.5 μL per well. Human B0AT1 stable expression CHO cells suspended in a buffer (buffer containing 96 mM sodium chloride, 2 mM potassium chloride, 1.8 mM calcium chloride, 1 mM magnesium chloride, 0.01% bovine serum albumin, and 10 mM 2-[4-(2-hydroxyethyl)-1-piperazinyl]ethanesulfonic acid) were added by 90 μL to 75000 cells/well. After standing at ordinary temperature for 30 min or longer, the cells were subjected to a phenylalanine uptake experiment. A buffer containing L-phenylalanine and [3,4,5-3H]-L-phenylalanine was added by 10 μL per well (final concentration of phenylalanine 0.25 mM), and the radioactivity of the plate bottom surface at ordinary temperature was measured with a scintillation counter over time, and the radioactivity value after 100 to 200 min was analyzed. A value obtained by subtracting the B0AT1 non-specific uptake from the control uptake was taken as 100%, and the concentration necessary for each test compound to achieve 50% inhibition (IC50 value) was determined by nonlinear regression using a logistic model.

Chain of Human B0AT1 (Q695T7 whole entry): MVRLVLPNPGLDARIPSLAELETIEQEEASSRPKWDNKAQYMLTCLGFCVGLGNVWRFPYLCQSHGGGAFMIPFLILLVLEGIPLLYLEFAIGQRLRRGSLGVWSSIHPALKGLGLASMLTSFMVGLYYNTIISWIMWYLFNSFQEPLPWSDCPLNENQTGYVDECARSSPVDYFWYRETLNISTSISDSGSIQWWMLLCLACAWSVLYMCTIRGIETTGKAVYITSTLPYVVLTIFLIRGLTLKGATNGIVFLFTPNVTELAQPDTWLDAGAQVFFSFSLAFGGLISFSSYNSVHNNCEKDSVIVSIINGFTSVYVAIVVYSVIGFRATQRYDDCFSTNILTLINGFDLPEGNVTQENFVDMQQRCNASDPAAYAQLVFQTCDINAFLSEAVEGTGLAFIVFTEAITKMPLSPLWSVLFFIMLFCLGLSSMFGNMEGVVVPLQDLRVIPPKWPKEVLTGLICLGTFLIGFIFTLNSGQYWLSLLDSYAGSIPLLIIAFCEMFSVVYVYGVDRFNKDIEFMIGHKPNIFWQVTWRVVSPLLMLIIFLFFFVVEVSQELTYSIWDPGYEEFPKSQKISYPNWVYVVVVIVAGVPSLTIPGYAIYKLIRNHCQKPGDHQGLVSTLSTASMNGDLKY

Going from O=C(/C=C/c1ccc(C(F)(F)F)cc1)NCC(=O)N1CCn2ncc(Br)c2C1 [I-96] to O=C(/C=C/c1ccc(C(F)(F)F)cc1)NCC(=O)N1CCn2ncc(Cl)c2C1 [I-202], the IC50 rises from 10 nM to 22 nM (2.2-fold). The first is the more potent here.

First: CNC(=O)[C@H]1C[C@H](n2cccn2)CN1C(=O)CNC(=O)/C=C/c1ccc(C(F)(F)F)cc1 [I-215]
Second: O=C(/C=C/c1ccc(C(F)(F)F)cc1)NCC(=O)N1CC[C@@H](n2cccn2)C1 [I-177]
The IC50 of the first is 5.4-fold higher: 473 nM for the first, 87 nM for the second. The second is the more potent here.

Compared with NC(=O)c1cnn2c1CN(C(=O)CNC(=O)/C=C/c1ccc(C(F)(F)F)cc1)CC2 [I-224], CN(C)C(=O)c1cnn2c1CN(C(=O)CNC(=O)/C=C/c1ccc(C(F)(F)F)cc1)CC2 [I-226] is 1.5-fold higher in IC50: 44 nM for the first, 67 nM for the second.

Compared with CN1CCN(C(=O)CNC(=O)/C=C/c2ccc(OC(F)(F)F)cc2)CC1=O [I-118], Cn1nc2n(c1=O)CCN(C(=O)CNC(=O)/C=C/c1ccc(C(F)(F)F)cc1)C2 [I-79] is 2.7-fold lower in IC50: 137 nM for the first, 51 nM for the second. The second is the more potent here.

NS(=O)(=O)c1ccc2c(c1)CN(C(=O)CNC(=O)/C=C/c1ccc(C(F)(F)F)cc1)CC2 [I-189] and NS(=O)(=O)c1ccc2c(c1)CCN(C(=O)CNC(=O)/C=C/c1ccc(C(F)(F)F)cc1)C2 [I-220] are within 1.5-fold of each other in IC50: 35 nM for the first, 43 nM for the second.

Cc1nc2c(s1)CN(C(=O)CNC(=O)/C=C/c1ccc(C(F)(F)F)cc1)C2 [I-61] and O=C(/C=C/c1ccc(C(F)(F)F)cc1)NCC(=O)N1Cc2ncsc2C1 [I-62] are within 1.5-fold of each other in IC50: 81 nM for the first, 77 nM for the second.

First: O=C(/C=C/c1ccc(C(F)(F)F)cc1)NCC(=O)N1Cc2ccccc2C(c2ccccc2)C1 (stereo not shown) [I-183]
Second: O=C(/C=C/c1ccc(C(F)(F)F)cc1)NCC(=O)N1CC(=O)NC(c2ccccc2)C1 (stereo not shown) [I-12, (E)-N-[2-oxo-2-(3-oxo-5-phenylpiperazin-1-yl)ethyl]-3-[4-(trifluoromethyl)phenyl]prop-2-enamide]
The IC50 of the first is 2-fold lower: 80 nM for the first, 163 nM for the second. The first is the more potent here.

Compared with O=C(/C=C/c1ccc(S(F)(F)(F)(F)F)cc1)NCC(=O)N1CCc2cc(C(=O)O)ccc2C1 [I-276, 2-[2-[[(E)-3-[4-(pentafluoro-A6-sulfanyl)phenyl]prop-2-enoyl]amino]acetyl]-3,4-dihydro-1H-isoquinoline-6-carboxylic acid], O=C(/C=C/c1ccc(C(F)(F)F)cc1)NCC(=O)N1CCc2cc(C(=O)O)ccc2C1 [I-277] is 1.6-fold higher in IC50: 87 nM for the first, 143 nM for the second. The first is the more potent here.

O=C(/C=C/c1ccc(C(F)(F)F)cc1)NCC(=O)N1CC[C@H](O)C1 [I-18] and CC1CCN(C(=O)CNC(=O)/C=C/c2ccc(C(F)(F)F)cc2)CC1 [I-26] are within 1.5-fold of each other in IC50: 1660 nM for the first, 1440 nM for the second.

Compared with O=C(/C=C/c1ccc(C(F)(F)F)cc1)NCC(=O)N1CCn2c(nnc2C(F)(F)F)C1 [I-22], O=C(/C=C/c1ccc(C(F)(F)F)cc1)NCC(=O)N1CCn2cc(C(F)(F)F)nc2C1 [I-37] is 2.4-fold lower in IC50: 214 nM for the first, 91 nM for the second. The second is the more potent here.

O=C(/C=C/c1ccc(C(F)(F)F)cc1)NCC(=O)N1CCc2cncnc2C1 [I-84] and O=C(/C=C/c1ccc(C(F)(F)F)cc1)NCC(=O)N1CCc2ncncc2C1 [I-78] are within 1.5-fold of each other in IC50: 54 nM for the first, 56 nM for the second.

First: O=C(/C=C/c1ccc(C(F)(F)F)cc1)NCC(=O)N1CCNCC1 [I-133, (E)-N-(2-oxo-2-piperazin-1-ylethyl)-3-[4-(trifluoromethyl)phenyl]prop-2-enamide hydrochloride]
Second: O=C(/C=C/c1ccc(C(F)(F)F)cc1)NCC(=O)N1CCNC(=O)C1 [I-1, (E)-N-[2-oxo-2-(3-oxopiperazin-1-yl)ethyl]-3-[4-(trifluoromethyl)phenyl]prop-2-enamide]
The IC50 of the first is 1.6-fold lower: 69 nM for the first, 107 nM for the second. The first is the more potent here.

COCCN(CC(=O)N(C)CCO)C(=O)CNC(=O)/C=C/c1ccc(C(F)(F)F)cc1 [I-148, (E)-N-[2-[[2-[2-hydroxyethyl(methyl)amino]-2-oxoethyl]-(2-methoxyethyl)amino]-2-oxoethyl]-3-[4-(trifluoromethyl)phenyl]prop-2-enamide] and CCN(CCOC)C(=O)CNC(=O)/C=C/c1ccc(C(F)(F)F)cc1 [I-5] are within 1.5-fold of each other in IC50: 259 nM for the first, 262 nM for the second.

First: O=C(/C=C/c1ccc(C(F)(F)F)cc1)NCC(=O)N1CCn2ncc(C(=O)N3CCC(F)(F)C3)c2C1 [I-280]
Second: O=C(/C=C/c1ccc(C(F)(F)F)cc1)NCC(=O)N1CCn2nc(C(=O)O)c(C3CC3)c2C1 [I-268]
The IC50 of the first is 1.6-fold lower: 49 nM for the first, 79 nM for the second. The first is the more potent here.

First: Cc1cccc2c1CN(C(=O)CNC(=O)/C=C/c1ccc(C(F)(F)F)cc1)CC2 [I-193]
Second: O=C(/C=C/c1ccc(C(F)(F)F)cc1)NCC(=O)N1CCc2c(cccc2C(F)(F)F)C1 [I-194]
The IC50 of the first is 2.8-fold lower: 50 nM for the first, 140 nM for the second. The first is the more potent here.

COCCN(CCOC)C(=O)CNC(=O)/C=C/c1ccc(C(F)(F)F)cc1 [I-4] and COCCN(CCS(C)(=O)=O)C(=O)CNC(=O)/C=C/c1ccc(C(F)(F)F)cc1 [I-51] are within 1.5-fold of each other in IC50: 285 nM for the first, 386 nM for the second.

COCCN(Cc1cccnn1)C(=O)CNC(=O)/C=C/c1ccc(C(F)(F)F)cc1 [I-59] and COCCN(Cc1ccncn1)C(=O)CNC(=O)/C=C/c1ccc(C(F)(F)F)cc1 [I-54] are within 1.5-fold of each other in IC50: 503 nM for the first, 438 nM for the second.

First: COCCN(CC1CCOCC1)C(=O)CNC(=O)/C=C/c1ccc(C(F)(F)F)cc1 [I-49]
Second: COCCN(Cc1nc(C)c(C)s1)C(=O)CNC(=O)/C=C/c1ccc(C(F)(F)F)cc1 [I-57]
The IC50 of the first is 8.1-fold higher: 775 nM for the first, 96 nM for the second. The second is the more potent here.

Going from COCC1Cn2ncnc2CN1C(=O)CNC(=O)/C=C/c1ccc(C(F)(F)F)cc1 (stereo not shown) [I-219] to Cn1ncc2c1CN(C(=O)CNC(=O)/C=C/c1ccc(C(F)(F)F)cc1)C2 [I-66], the IC50 falls from 262 nM to 122 nM (2.1-fold). The second is the more potent here.

O=C(/C=C/c1ccc(C(F)(F)F)cc1)NCC(=O)N1Cc2cncnc2C1 [I-68] and O=C(/C=C/c1ccc(C(F)(F)F)cc1)NCC(=O)N1Cc2nccnc2C1 [I-178] are within 1.5-fold of each other in IC50: 58 nM for the first, 60 nM for the second.

First: O=C(/C=C/c1ccc(C(F)(F)F)cc1)NCC(=O)N1C[C@H](O)C[C@@H]1c1ccccc1 [I-141, (E)-N-[2-[(2R,4R)-4-hydroxy-2-phenylpyrrolidin-1-yl]-2-oxoethyl]-3-[4-(trifluoromethyl)phenyl]prop-2-enamide]
Second: O=C(/C=C/c1ccc(C(F)(F)F)cc1)NCC(=O)N1CCc2ccc(C(=O)O)cc2C1 [I-270]
The IC50 of the first is 10-fold higher: 1720 nM for the first, 168 nM for the second. The second is the more potent here.

First: Cc1nc2n(n1)CCN(C(=O)CNC(=O)/C=C/c1ccc(C(F)(F)F)cc1)C2 [I-174]
Second: CNC(=O)c1nc2n(n1)CCN(C(=O)CNC(=O)/C=C/c1ccc(C(F)(F)F)cc1)C2 [I-205]
The IC50 of the first is 1.8-fold lower: 48 nM for the first, 88 nM for the second. The first is the more potent here.

O=C(/C=C/c1ccc(C(F)(F)F)cc1)NCC(=O)N1CCCn2nccc21 [I-86] and CC1CCN(C(=O)CNC(=O)/C=C/c2ccc(C(F)(F)F)cc2)c2ccnn21 (stereo not shown) [I-187] are within 1.5-fold of each other in IC50: 23 nM for the first, 26 nM for the second.

Compared with O=C(/C=C/c1ccc(C(F)(F)F)cc1)NCC(=O)N1CCc2nncn2CC1 [I-20], CN1CCN(C(=O)CNC(=O)/C=C/c2ccc(C(F)(F)F)cc2)CC1 [I-2] is 5.1-fold lower in IC50: 270 nM for the first, 53 nM for the second. The second is the more potent here.

Going from CN1CCN(C(=O)CNC(=O)/C=C/c2ccc(C3CCC3)cc2)CC1 [I-116] to CCCCOc1ccc(/C=C/C(=O)NCC(=O)N2CCN(C)CC2)cc1 [I-113], the IC50 rises from 39 nM to 178 nM (4.6-fold).

First: O=C(/C=C/c1ccc(C(F)(F)F)cc1)NCC(=O)N1CCCNC(=O)C1 [I-16]
Second: O=C(/C=C/c1ccc(C(F)(F)F)cc1)NCC(=O)N1CCCn2ccnc2C1 [I-179]
The IC50 of the first is 29-fold higher: 1750 nM for the first, 60 nM for the second. The second is the more potent here.

Cn1cc2c(n1)CCN(C(=O)CNC(=O)/C=C/c1ccc(C(F)(F)F)cc1)C2 [I-82] and O=C(/C=C/c1ccc(C(F)(F)F)cc1)NCC(=O)N1CCc2n[nH]c(=O)cc2C1 [I-81] are within 1.5-fold of each other in IC50: 64 nM for the first, 53 nM for the second.

Compared with O=C(/C=C/c1ccc(C(F)(F)F)cc1)NCC(=O)N1CCc2ccncc2C1 [I-36], O=C(/C=C/c1ccc(C(F)(F)F)cc1)NCC(=O)N1CCc2[nH]nnc2C1 [I-98] is 5.2-fold higher in IC50: 15 nM for the first, 78 nM for the second. The first is the more potent here.

Compared with CN1CCN(C(=O)CNC(=O)/C=C/c2ccc(-c3cccnc3)cc2)CC1 [I-111], CN1CCN(C(=O)CNC(=O)/C=C/c2ccc(OCC(F)(F)C(F)F)cc2)CC1 [I-109] is 1.8-fold lower in IC50: 471 nM for the first, 267 nM for the second. The second is the more potent here.

Compared with COCC(C)N(Cc1ccccn1)C(=O)CNC(=O)/C=C/c1ccc(C(F)(F)F)cc1 (stereo not shown) [I-83], COCCN(Cc1ncccc1Cl)C(=O)CNC(=O)/C=C/c1ccc(C(F)(F)F)cc1 [I-55] is 1.6-fold higher in IC50: 78 nM for the first, 122 nM for the second. The first is the more potent here.

Compared with O=C(/C=C/c1ccc(C(F)(F)F)cc1)NCC(=O)N1CCc2c(ccc(C(=O)O)c2F)C1 [I-261, 5-fluoro-2-[2-[[(E)-3-[4-(trifluoromethyl)phenyl]prop-2-enoyl]amino]acetyl]-3,4-dihydro-1H-isoquinoline-6-carboxylic acid], CN(C)C(=O)c1cn2c(n1)CN(C(=O)CNC(=O)/C=C/c1ccc(C(F)(F)F)cc1)CC2 [I-146] is 2.4-fold lower in IC50: 223 nM for the first, 93 nM for the second. The second is the more potent here.

Compared with CC(=O)N1CCN(C(=O)CNC(=O)/C=C/c2ccc(C(F)(F)F)cc2)CC1 [I-28], O=C(/C=C/c1ccc(C(F)(F)F)cc1)NCC(=O)N1CCN(CCO)CC1 [I-25] is 12-fold lower in IC50: 978 nM for the first, 81 nM for the second. The second is the more potent here.

Going from COCCN(Cc1cc(C)n(C)n1)C(=O)CNC(=O)/C=C/c1ccc(C(F)(F)F)cc1 [I-58] to Cc1nnc(CN(CC2(F)CCC2)C(=O)CNC(=O)/C=C/c2ccc(C(F)(F)F)cc2)o1 [I-212], the IC50 falls from 353 nM to 43 nM (8.2-fold). The second is the more potent here.

O=C(/C=C/c1ccc(C(F)(F)F)cc1)NCC(=O)N1CCN2C(=O)OC[C@@H]2C1 [I-33] and O=C(/C=C/c1ccc(C(F)(F)F)cc1)NCC(=O)N1CCN2C(=O)NCC2C1 (stereo not shown) [I-44] are within 1.5-fold of each other in IC50: 319 nM for the first, 261 nM for the second.

Compared with O=C(/C=C/c1ccc(C(F)(F)F)cc1)NCC(=O)N1CCCC(n2cccn2)C1 (stereo not shown) [I-74], CNC(=O)c1nn2c(c1Br)CN(C(=O)CNC(=O)/C=C/c1ccc(C(F)(F)F)cc1)CC2 [I-279] is 18-fold lower in IC50: 1310 nM for the first, 71 nM for the second. The second is the more potent here.
